From patent publication US20220363870A1, “Stain Resistant Additive” (Arxada AG, priority 2019, published 2022)
Several values for one entry are separate records, joined by “and”; a condition that tells them apart may be missing. Identical values can stand only once.

Tested on: 4 algal species
Assay: Resistance of Paint Films to Algal Defacement (Modified ASTM Method D5589)
Format: cell-based
Set-up: key to 4 wk Rating / 10 wk Rating / 14 wk Rating: 0 showing no growth; 4 showing the highest growth
Conditions: for Average 4 week rating: paint of Example 1, scale 0-4
Procedure: Procedure (Modified ASTM Method D5589): • 1. Sample substrates are coated with the corresponding paint samples containing the targeted amount of additive and antimicrobial. • 2. Depending upon the test conditions, samples are subjected to UV, leaching conditions, standard conditions, or a combination thereof. Leaching was performed for up to 7 days and with or without up to 600 hr of QUV in a weathering chamber. • 3. 4 algal species are used and inoculated every 2 weeks, including up to 18 weeks. Fresh plates were replaced at weeks 4, 10, 14, and 18. • 4. Ratings are scored on a range of 0-4, with 0 showing no growth and 4 showing the highest growth.

Zinc pyrithione
4 wk Rating (Conc. 0.7% in paint of Example 1, algal growth rating 0-4, 4 wk): 0
10 wk Rating (Conc. 0.7% in paint of Example 1, algal growth rating 0-4, 10 wk): 0
14 wk Rating (Conc. 0.7% in paint of Example 1, algal growth rating 0-4, 14 wk): 0
4 wk ZOI (Conc. 0.7% in paint of Example 1, zone of inhibition, 4 wk): 15
18 wk ZOI (Conc. 0.7% in paint of Example 1, zone of inhibition, 18 wk): 0

CCCCCCCCn1sccc1=O [N-octylisothiazolinone]
Average 4 week rating (Biocide 350 ppm + Additive 1,000 ppm): 3.7
Average 4 week rating (Biocide 350 ppm + Additive 3,000 ppm): 1.7
Average 4 week rating (Biocide 350 ppm, no additive): 2.7
Average 4 week rating (Biocide 700 ppm + Additive 1,000 ppm): 0.7
Average 4 week rating (Biocide 700 ppm + Additive 3,000 ppm): 0.0
Average 4 week rating (Biocide 700 ppm, no additive): 1.0
Average 4 week rating (Biocide 1,050 ppm + Additive 1,000 ppm): 0.0
Average 4 week rating (Biocide 1,050 ppm + Additive 3,000 ppm): 0.0
Average 4 week rating (Biocide 1,050 ppm, no additive): 1.3

zinc di(ethyl 4,4,4-trifluoroacetoacetate) dihydrate [Additive]
Average 4 week rating (Additive 1,000 ppm, no biocide): 3.7
Average 4 week rating (Additive 3,000 ppm, no biocide): 2.0
18 wk Rating (Conc. 0.3% in paint of Example 1, algal growth rating 0-4, 18 wk, dihydrate): 3 and 2
4 wk ZOI (Conc. 0.3% in paint of Example 1, zone of inhibition, 4 wk): 0
10 wk ZOI (Conc. 0.3% in paint of Example 1, zone of inhibition, 10 wk): 0
14 wk ZOI (Conc. 0.3% in paint of Example 1, zone of inhibition, 14 wk): 0
18 wk ZOI (Conc. 0.3% in paint of Example 1, zone of inhibition, 18 wk): 0
